Source: ChEMBL document CHEMBL1144362, “Synthesis and biological evaluation of novel 1,4-naphthoquinone derivatives as antibacterial and antiviral agents” (2005)
≈ marks a conversion by molar mass, not a printed value.

Assays:
Klebsiella pneumoniae = assay: Minimum inhibitory concentration gainst Klebsiella pneumoniae by broth microdilution technique; format: functional
Pseudomonas aeruginosa = assay: Minimum inhibitory concentration gainst Pseudomonas aeruginosa by broth microdilution technique; format: functional
Staphylococcus aureus = assay: Minimum inhibitory concentration gainst Staphylococcus aureus by broth microdilution technique; format: functional
Enterococcus faecalis = assay: Minimum inhibitory concentration gainst Streptococcus faecalis by broth microdilution technique; format: functional
Escherichia coli = assay: Minimum inhibitory concentration gainst Escherichia coli by broth microdilution technique; format: functional
[1] = Antiviral activity against poliovirus type 2 infected HeLa cells; control=55; format: functional, Poliovirus type2
[2] = Antiviral activity against poliovirus type 2 infected HeLa cells; format: functional, Poliovirus type2

Compound	MIC (Klebsiella pneumoniae) [µg/mL]	MIC (Pseudomonas aeruginosa) [µg/mL]	MIC (Staphylococcus aureus) [µg/mL]	MIC (Enterococcus faecalis) [µg/mL]	MIC (Escherichia coli) [µg/mL]	DPM [1]	DPM [2]
O=C(CSC1=CC(=O)c2ccccc2C1=O)Nc1ccc([N+](=O)[O-])cc1	> 50	> 50	25 (≈ 67.9 µM)	12.5 (≈ 33.9 µM)	6.25 (≈ 17 µM)		
O=C(CSC1=CC(=O)c2ccccc2C1=O)Nc1ccccc1	50 (≈ 155 µM)	> 50	12.5 (≈ 38.7 µM)	50 (≈ 155 µM)	50 (≈ 155 µM)		
Oc1ccc(O)c2c1SCCS2	> 50	> 50	> 50	> 50	> 50		
O=C1C=CC(=O)c2c(O)c3c(c(O)c21)SCCS3	> 50	> 50	> 50	> 50	> 50		
COc1ccc(NC(=O)C(C)SC2=CC(=O)c3ccccc3C2=O)cc1 (stereo not given)	> 50	> 50	25 (≈ 68 µM)	> 50	50 (≈ 136 µM)		
CC(SC1=CC(=O)c2ccccc2C1=O)C(=O)Nc1cccc2ccccc12 (stereo not given)	> 50	50 (≈ 129 µM)	> 50	> 50	> 50		
CC(SC1=CC(=O)c2ccccc2C1=O)C(=O)Nc1ccccc1 (stereo not given)	> 50	> 50	25 (≈ 74.1 µM)	12.5 (≈ 37 µM)	6.25 (≈ 18.5 µM)		
O=C1C2=C(SCCS2)C(=O)c2ccccc21	> 50	50 (≈ 201 µM)	> 50	> 50	> 50		
O=C1C=CC(=O)c2c(Cl)ccc(O)c21						375	
O=C(O)CSC1=CC(=O)c2c(O)ccc(O)c2C1=O	> 50	> 50	> 50	> 50	> 50		
O=C1CSc2c3c(c4ccccc4c2O1)OC(=O)CS3	25 (≈ 82.1 µM)	> 50	> 50	> 50	> 50		
Cc1cccc(NC(=O)C(C)SC2=CC(=O)c3ccccc3C2=O)c1 (stereo not given)	> 50	> 50	> 50	> 50	> 50		
CC1=C(SC(C)C(=O)O)C(=O)c2ccccc2C1=O (stereo not given)	> 50	> 50	25 (≈ 90.5 µM)	50 (≈ 181 µM)	50 (≈ 181 µM)		
COc1ccccc1NC(=O)C(C)SC1=CC(=O)c2ccccc2C1=O (stereo not given)	12.5 (≈ 34 µM)	> 50	> 50	> 50	> 50		
COc1ccccc1NC(=O)CSC1=CC(=O)c2ccccc2C1=O	25 (≈ 70.7 µM)	> 50	> 50	> 12.5	6.25 (≈ 17.7 µM)		
CC(SC1=CC(=O)c2ccccc2C1=O)C(=O)O (stereo not given)	50 (≈ 191 µM)	> 50	25 (≈ 95.3 µM)	50 (≈ 191 µM)	50 (≈ 191 µM)		
COc1ccc(NC(=O)CSC2=CC(=O)c3ccccc3C2=O)cc1	6.25 (≈ 17.7 µM)	50 (≈ 141 µM)	25 (≈ 70.7 µM)	6.25 (≈ 17.7 µM)	12.5 (≈ 35.4 µM)		
CC(SC1=CC(=O)c2ccccc2C1=O)C(=O)Nc1ccc([N+](=O)[O-])cc1 (stereo not given)	> 50	> 50	25 (≈ 65.4 µM)	50 (≈ 131 µM)	50 (≈ 131 µM)		
Cc1ccccc1NC(=O)CSC1=CC(=O)c2ccccc2C1=O	> 50	> 50	12.5 (≈ 37 µM)	50 (≈ 148 µM)	50 (≈ 148 µM)		
CC(SC1=C(O)C(=O)c2ccccc2C1=O)C(=O)O (stereo not given)	50 (≈ 180 µM)	> 50	50 (≈ 180 µM)	50 (≈ 180 µM)	50 (≈ 180 µM)		
CC(SC1=CC(=O)c2c(O)ccc(O)c2C1=O)C(=O)O (stereo not given)	50 (≈ 170 µM)	> 50	> 50	25 (≈ 85 µM)	50 (≈ 170 µM)		
O=C(CSC1=CC(=O)c2ccccc2C1=O)Nc1cccc2ccccc12	25 (≈ 66.9 µM)	> 50	> 50	12.5 (≈ 33.5 µM)	12.5 (≈ 33.5 µM)		
Cc1ccc(NC(=O)C(C)SC2=CC(=O)c3ccccc3C2=O)cc1 (stereo not given)	> 50	> 50	> 50	> 50	> 50		
Cc1ccccc1NC(=O)C(C)SC1=CC(=O)c2ccccc2C1=O (stereo not given)	> 50	> 50	> 50	> 50	> 50		
O=C(O)CSC1=CC(=O)c2ccccc2C1=O							675
GENTAMICIN	0.39	0.78	0.78				
